Laboratory results published in patent US8399459B2, “1,4 oxazines as BACE1 and/or BACE2 inhibitors” (Hoffmann-La Roche Inc., priority 2011, dated 2013).

Biological target: T1, BACE2 (Rattus norvegicus, UniProt Q6IE75)
T1 construct: endogenous cellular BACE2 in the Ins1e rat cell line; endogenous in cells; host or cells: INS-TMEM27 (INS1e-derived rat cell line with doxycycline-inducible full-length human TMEM27)
T1 sequence (Q6IE75 63-514): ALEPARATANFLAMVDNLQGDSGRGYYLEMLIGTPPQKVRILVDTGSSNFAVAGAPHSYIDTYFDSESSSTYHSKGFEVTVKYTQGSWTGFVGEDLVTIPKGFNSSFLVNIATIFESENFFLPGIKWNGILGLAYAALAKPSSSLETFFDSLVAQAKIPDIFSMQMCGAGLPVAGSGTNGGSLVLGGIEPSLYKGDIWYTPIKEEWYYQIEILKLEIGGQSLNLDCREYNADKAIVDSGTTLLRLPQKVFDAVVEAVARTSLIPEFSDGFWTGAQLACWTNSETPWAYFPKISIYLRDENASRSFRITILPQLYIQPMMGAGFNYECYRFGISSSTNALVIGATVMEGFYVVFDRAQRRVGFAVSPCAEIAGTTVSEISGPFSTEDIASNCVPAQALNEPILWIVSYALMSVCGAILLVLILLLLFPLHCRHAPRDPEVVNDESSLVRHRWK
Assay: Assay for BACE inhibition by measuring cellular TMEM27 cleavage (INS-TMEM27 cells, ELISA)
Format: cell-based
Settings: INS-TMEM27 (INS1e-derived) cells; shed TMEM27 by ELISA
Text: Assay for BACE Inhibition by Measuring Cellular TMEM27 Cleavage:
The assay uses the principle of inhibition of human TMEM27 cleavage by endogenous cellular BACE2 in the Ins1e rat cell line and shedding from the cell surface into the culture medium, followed by detection in an ELISA assay. Inhibition of BACE2 prevents the cleavage and shedding in a dose-dependent manner.
The stable cell line “INS-TMEM27” represents an INS1e-derived cell line with inducible expression (using the TetOn system) of full-length hTMEM27 in a doxycycline-dependent manner. The cells are cultured throughout the experiment in RPMI1640+Glutamax (Invitrogen) Penicillin/Streptomycin, 10% Fetal bovine serum, […], […], 100 micrograms/ml G418 and 100 microgram/ml hygromycin and are grown inadherent culture at 37° C. in a standard CO2 cell culture incubator.
INS-TMEM27 cells are seeded in 96-well plates. After 2 days in culture, BACE2 inhibitor is added in a range of concentrations as required by the assay and after a further two hours, doxycycline is added to a final concentration of 500 ng/ml. The cells are incubated for a further 46 hours and the supernatant harvested for detection of shed TMEM27.
An ELISA assay (using a pair of mouse anti-human-TMEM27 antibodies, raised against the extracellular domain of TMEM27) is used for detection of TMEM27 in the culture medium. An EC50 for BACE2 inhibition is calculated using the ELISA readout for each inhibitor concentration with standard curve-fitting software such as XLFit for the Excel spreadsheet program.

CC1(c2cccc(-c3cc(Cl)cc(Cl)c3)c2)COCC(N)=N1 (stereo not shown) [Example 32, 5-(3′,5′-Dichloro-biphenyl-3-yl)-5-methyl-5,6-dihydro-2H-[1,4]oxazin-3-ylamine]
IC50: 470 nM
